The record followed here is ChEMBL document CHEMBL5726221, “4,6-substituted-pyrazolo[1,5-a]pyrazines as janus kinase inhibitors” (2019).

What is called IC50 is the midpoint of a concentration-inhibition curve.

For test [1], the target named is Non-receptor tyrosine-protein kinase TYK2 (Homo sapiens, UniProt P29597). Nature of the test: Tyk2 Inhibition Assay: Compounds of Formula I were screened for their ability to inhibit Tyk2 using the general enzyme inhibition assay method, in which the assay mixture contained 1 mM ATP, 8 μM Omnia Y12 peptide (Catalog # IVGN KPZ3121C; Invitrogen Corporation, Carlsbad, Calif.) and 1 nM Tyk2 in a total volume of 25 μL. Human Tyk2 kinase domain, comprising amino acids 886 to 1187 with 10 additional histidine residues (histidine tag) on the carboxy terminus, was expressed and purified from bacculovirus in-house at Array BioPharma Inc. (Boulder, Colo.). The histidine tag was cleaved after purification using standard conditions.

Test [2] addresses T1, Tyrosine-protein kinase JAK3 (Homo sapiens, UniProt P52333).
T1 sequence (P52333 whole entry): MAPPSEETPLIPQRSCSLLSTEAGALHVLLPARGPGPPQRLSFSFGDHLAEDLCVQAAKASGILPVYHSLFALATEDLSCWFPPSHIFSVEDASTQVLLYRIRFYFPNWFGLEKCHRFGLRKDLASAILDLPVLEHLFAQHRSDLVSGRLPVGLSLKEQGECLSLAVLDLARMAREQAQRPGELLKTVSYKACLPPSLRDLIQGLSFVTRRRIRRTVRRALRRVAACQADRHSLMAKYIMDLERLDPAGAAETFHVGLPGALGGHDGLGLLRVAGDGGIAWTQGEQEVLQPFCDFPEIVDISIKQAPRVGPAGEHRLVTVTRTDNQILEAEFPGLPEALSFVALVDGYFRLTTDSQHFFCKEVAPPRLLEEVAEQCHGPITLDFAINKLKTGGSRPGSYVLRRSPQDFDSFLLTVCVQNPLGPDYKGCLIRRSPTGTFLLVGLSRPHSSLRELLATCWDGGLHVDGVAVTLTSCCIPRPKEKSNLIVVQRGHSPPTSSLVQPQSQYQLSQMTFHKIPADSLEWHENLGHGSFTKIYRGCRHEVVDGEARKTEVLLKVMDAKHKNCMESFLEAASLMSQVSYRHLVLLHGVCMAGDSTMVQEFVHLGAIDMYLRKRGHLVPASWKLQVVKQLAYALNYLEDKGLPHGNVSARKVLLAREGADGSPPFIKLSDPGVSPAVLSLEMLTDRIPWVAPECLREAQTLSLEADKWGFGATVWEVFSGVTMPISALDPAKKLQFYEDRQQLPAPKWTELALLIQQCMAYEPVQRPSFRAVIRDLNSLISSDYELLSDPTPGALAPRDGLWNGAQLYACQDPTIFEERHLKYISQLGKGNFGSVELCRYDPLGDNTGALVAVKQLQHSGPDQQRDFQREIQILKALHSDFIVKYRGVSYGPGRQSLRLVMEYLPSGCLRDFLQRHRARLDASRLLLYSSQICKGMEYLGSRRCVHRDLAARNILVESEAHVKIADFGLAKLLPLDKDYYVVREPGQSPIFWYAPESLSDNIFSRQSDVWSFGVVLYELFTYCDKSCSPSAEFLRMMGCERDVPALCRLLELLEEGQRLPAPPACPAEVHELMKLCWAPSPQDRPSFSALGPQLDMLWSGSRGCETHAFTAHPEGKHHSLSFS
Nature of the test: JAK3 Inhibition Assay: Compounds of Formula I were screened for their ability to inhibit JAK3 using the general enzyme inhibition assay method, in which the assay mixture contained 1 mM ATP, 10 μM Omnia® Y7 peptide (Catalog # IVGN KNZ3071C, Invitrogen Corporation, Carlsbad, Calif.) and 2 nM JAK3 in a total volume of 25 μL. JAK3 was purchased from Invitrogen Corporation, Carlsbad, Calif. (catalog # IVGN PV4080).

Sequence of Non-receptor tyrosine-protein kinase TYK2 (P29597 whole entry, the tested form may be a part): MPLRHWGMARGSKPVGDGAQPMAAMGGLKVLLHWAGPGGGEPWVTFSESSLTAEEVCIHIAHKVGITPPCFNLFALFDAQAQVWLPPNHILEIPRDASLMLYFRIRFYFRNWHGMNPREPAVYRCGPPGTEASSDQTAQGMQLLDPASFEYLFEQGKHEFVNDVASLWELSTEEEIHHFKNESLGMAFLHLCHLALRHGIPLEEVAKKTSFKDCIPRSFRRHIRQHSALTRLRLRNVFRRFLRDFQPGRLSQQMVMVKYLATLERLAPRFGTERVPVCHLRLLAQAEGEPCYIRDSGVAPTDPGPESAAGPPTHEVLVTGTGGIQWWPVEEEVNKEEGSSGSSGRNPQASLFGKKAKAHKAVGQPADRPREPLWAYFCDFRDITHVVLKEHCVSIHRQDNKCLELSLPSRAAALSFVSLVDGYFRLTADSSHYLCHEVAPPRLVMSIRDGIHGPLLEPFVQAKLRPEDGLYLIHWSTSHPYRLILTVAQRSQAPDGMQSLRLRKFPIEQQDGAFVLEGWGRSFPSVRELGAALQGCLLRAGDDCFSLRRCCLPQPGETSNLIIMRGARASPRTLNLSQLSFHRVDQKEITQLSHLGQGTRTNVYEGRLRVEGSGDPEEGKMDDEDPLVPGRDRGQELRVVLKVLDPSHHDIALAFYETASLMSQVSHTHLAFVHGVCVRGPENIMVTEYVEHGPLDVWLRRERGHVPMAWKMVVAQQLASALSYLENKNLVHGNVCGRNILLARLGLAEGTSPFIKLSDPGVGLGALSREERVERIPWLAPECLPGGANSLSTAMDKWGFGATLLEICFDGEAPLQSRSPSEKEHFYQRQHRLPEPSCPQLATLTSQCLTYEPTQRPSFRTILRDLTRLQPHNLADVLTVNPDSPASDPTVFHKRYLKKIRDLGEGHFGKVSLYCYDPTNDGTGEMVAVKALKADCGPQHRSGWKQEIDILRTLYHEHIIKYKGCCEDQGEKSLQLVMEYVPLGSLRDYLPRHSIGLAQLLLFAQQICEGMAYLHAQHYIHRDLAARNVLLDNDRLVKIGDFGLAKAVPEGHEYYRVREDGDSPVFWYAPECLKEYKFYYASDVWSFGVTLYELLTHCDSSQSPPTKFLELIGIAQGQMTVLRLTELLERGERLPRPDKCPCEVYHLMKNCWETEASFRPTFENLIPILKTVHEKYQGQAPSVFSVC

For the molecule `CCC(CC)n1cc(-c2nc(-c3cnn([C@H]4C[C@@H](O)[C@@H](O)C4)c3)cn3nccc23)cn1`, the concentration for half-maximal inhibition (IC50) entry in test [1] was “in the range around 0.055 µM”; in test [2] it was “in the range around 5.5 µM”.

As for `CCC(CC)n1cc(-c2nc(-c3cnn(CC4CC(CO)C4)c3)cn3nccc23)cn1` (centres undefined), in test [2], the IC50 result is “in the range around 5.5 µM”.

`CCC(CC)n1cc(-c2nc(-c3cnn([C@H]4C[C@@](O)(CO)C4)c3)cn3nccc23)cn1`: in test [2], the IC50 entry was “in the range around 5.5 µM”.
